From patent publication US4316904A, “Indolopyrone tetrazoles and carboxamidotetrazoles having antiallergic activity” (priority 1979, dated 1982)

Test system: Reaginic Passive Cutaneous Anaphylaxis (PCA)
Experiment: Rat Reaginic Passive Cutaneous Anaphylaxis (PCA)
Format: in vivo
Settings: for inhibition in vivo at 5 mg/kg / inhibition in vivo at 1 mg/kg: ip, read-out: percent inhibition (PCA test); for inhibition (PCA test), oral: orally
Procedure: The compounds of the invention are new chemical substances of value as pharmacological agents which prevent the allergic response in mammals by inhibition of the release of such allergic mediators, as histamine. The assay by which this utility was established is carried out as follows.
Rat Reaginic Passive Cutaneous Anaphylaxis (PCA)
The PCA test (D. J. Herzig, P. R. Schumann, E. J. Kusner, L. Robichaud, R. E. Giles, B. Dubnick, M. von Strandtmann, S. Klutchko, M. Cohen, and J. Shavel, Jr., "Immunopharmacology", M. E. Rosenthale and H. C. Mansmann, Eds., Spectrum Publications, Inc., New York, N.Y., 1975, pp. 103-124) involved immunization of rats with 1 mg of ovalbumin intramuscularly and approximately 10^10 B. pertussis organisms as pertussis vaccine, intraperitoneally. Fourteen days later, the rats were bled and the serum was prepared. Suitable dilutions of antiserum were injected intradermally at various sites on the back of rats 48 h before an intravenous injection of 1 mg of ovalbumin in 1 ml of physiological saline and 0.25% Evans Blue. Thirty minutes later the animals were killed in ether, the dorsal skin was reflected, and the mean orthogonal diameter of the wheal was measured. For oral or intraperitoneal dosing, the drugs were suspended in 1% gum tragacanth in physiological saline and given 10-15 min before intravenous antigen challenge. For intravenous dosing, the compounds were dissolved in the saline/ovalbumin/Evans Blue solution and given with the antigen. If necessary, the compounds were first dissolved in a slight molar excess of sodium bicarbonate and then diluted into the antigen solution. Groups of five animals were used for all dose levels and control groups.
To quantitate the PCA test, the mean diameter of each wheal spot was graphed as a function of the relative antiserum concentration. The line, fitted by the least-squares equation, was extrapolated to the value at "zero" antiserum concentration (base value). The following equation was then used to calculate the percent inhibition: [formula]
The statistical significance of the results was determined by Student's t test (p≤0.05). An inhibition of 15% was significant. The test results obtained for the compounds of the invention as well as for the corresponding acids (U.S. Pat. No. 4,028,383) are given as percent inhibition in the following table.

[1] = 5 mg/kg, 10-15 min before intravenous antigen challenge
[2] = 10-15 min before intravenous antigen challenge

SMILES: Cn1c2c([N+](=O)[O-])cc([N+](=O)[O-])cc2c2oc(C(=O)O)cc(=O)c21 [6,8-di-NO2 /CH3 A, 4,5-Dihydro-5-methyl-6,8-dinitro-4-oxopyrano[3,2-b]indole-2-carboxylic acid, reference compound]
- inhibition in vivo at 5 mg/kg [1]: 0%

SMILES: Cn1c2c([N+](=O)[O-])cc([N+](=O)[O-])cc2c2oc(C(=O)Nc3nnn[nH]3)cc(=O)c21 [6,8-di-NO2 /CH3 C, 4,5-Dihydro-5-methyl-6,8-dinitro-4-oxo-N-1H-tetrazol-5-ylpyrano[3,2-b]indole-2-carboxamide]
- inhibition in vivo at 5 mg/kg [1]: 48%

SMILES: Cc1ccc2c(c1)c1oc(C(=O)O)cc(=O)c1n2C [8-CH3 /CH3 A, 4,5-dihydro-5,8-dimethyl-4-oxopyrano[3,2-b]indole-2-carboxylic acid, reference compound]
- inhibition in vivo at 1 mg/kg [2]: 18%

SMILES: Cc1ccc2c(c1)c1oc(C(=O)Nc3nnn[nH]3)cc(=O)c1n2C [8-CH3 /CH3 C, 4,5-Dihydro-5,8-dimethyl-4-oxo-N-1H-tetrazol-5-ylpyrano[3,2-b]indole-2-carboxamide]
- inhibition in vivo at 1 mg/kg [2]: 33%
- inhibition in vivo at 5 mg/kg [1]: 100%

SMILES: Cc1ccc2c(c1)c1oc(-c3nnn[nH]3)cc(=O)c1n2C [8-CH3 /CH3 T, 5,8-Dimethyl-2-(1H-tetrazol-5-yl)pyrano[3,2-b]indol-4(5H)-one]
- inhibition in vivo at 1 mg/kg [2]: 25%
- inhibition in vivo at 5 mg/kg [1]: 100%
- inhibition (PCA test), oral (5 mg/kg): 56%

SMILES: Cn1c2ccc(Cl)cc2c2oc(C(=O)O)cc(=O)c21 [8-Cl/CH3 A, 8-chloro-4,5-dihydro-5-methyl-4-oxopyrano[3,2-b]indole-2-carboxylic acid, reference compound]
- inhibition in vivo at 5 mg/kg [1]: 23%

SMILES: Cn1c2ccc(Cl)cc2c2oc(C(=O)Nc3nnn[nH]3)cc(=O)c21 [8-Cl/CH3 C, 8-Chloro-4,5-dihydro-5-methyl-4-oxo-N-1H-tetrazol-5-ylpyrano[3,2-b]indole-2-carboxamide]
- inhibition in vivo at 1 mg/kg [2]: 38%
- inhibition in vivo at 5 mg/kg [1]: 100%

SMILES: Cn1c2ccc(Cl)cc2c2oc(-c3nnn[nH]3)cc(=O)c21 [8-Cl/CH3 T, 8-Chloro-5-methyl-2-(1H-tetrazol-5-yl)pyrano[3,2-b]indol-4(5H)-one]
- inhibition in vivo at 1 mg/kg [2]: 46%
- inhibition in vivo at 5 mg/kg [1]: 100%
- inhibition (PCA test), oral (5 mg/kg): 33%

SMILES: Cn1c2ccc([N+](=O)[O-])cc2c2oc(C(=O)O)cc(=O)c21 [8-NO2 /CH3 A, 4,5-Dihydro-5-methyl-8-nitro-4-oxopyrano-[3,2-b]indole-2-carboxylic acid, reference compound]
- inhibition in vivo at 1 mg/kg [2]: 1%
- inhibition in vivo at 5 mg/kg [1]: 100%

SMILES: Cn1c2ccc([N+](=O)[O-])cc2c2oc(C(=O)Nc3nnn[nH]3)cc(=O)c21 [8-NO2 /CH3 C, 4,5-Dihydro-5-methyl-8-nitro-4-oxo-N-1H-tetrazol-5-ylpyrano[3,2-b]indole-2-carboxamide]
- inhibition in vivo at 1 mg/kg [2]: 42%
- inhibition in vivo at 5 mg/kg [1]: 100%

SMILES: O=C(O)c1cc(=O)c2c(o1)c1ccccc1n2-c1ccccc1 [H/.phi. A, reference compound]
- inhibition in vivo at 1 mg/kg [2]: 13%

SMILES: O=C(Nc1nn[nH]n1)c1cc(=O)c2c(o1)c1ccccc1n2-c1ccccc1 [H/.phi. C]
- percent inhibition (PCA test) (i.p., 5 mg/kg, 10-15 min before intravenous antigen challenge): Inac.

SMILES: O=c1cc(-c2nnn[nH]2)oc2c3ccccc3n(-c3ccccc3)c12 [H/.phi. T, 5-Phenyl-2(1H-tetrazol-5-yl)pyrano[3,2-b]indol-4(5H)-one]
- inhibition (PCA test), intravenous (intravenously, 0.1 mg/kg, given with the antigen): 28%
- inhibition in vivo at 1 mg/kg [2]: 61%
- inhibition in vivo at 5 mg/kg [1]: 100%
- inhibition (PCA test), oral (2 mg/kg): 32%

SMILES: CCn1c2ccccc2c2oc(C(=O)O)cc(=O)c21 [H/C2 H5 A, 5-ethyl-4,5-dihydro-4-oxopyrano[3,2-b]indole-2-carboxylic acid, reference compound]
- inhibition in vivo at 1 mg/kg [2]: 0%

SMILES: CCn1c2ccccc2c2oc(C(=O)Nc3nnn[nH]3)cc(=O)c21 [H/C2 H5 C, 5-Ethyl-4,5-dihydro-4-oxo-N-1H-tetrazol-5-ylpyrano[3,2-b]indole-2-carboxamide]
- inhibition in vivo at 1 mg/kg [2]: 12%
- inhibition in vivo at 5 mg/kg [1]: 100%

SMILES: CCn1c2ccccc2c2oc(-c3nnn[nH]3)cc(=O)c21 [H/C2 H5 T, 5-Ethyl-2-(1H-tetrazol-5-yl)pyrano[3,2-b]indol-4(5H)-one]
- inhibition in vivo at 1 mg/kg [2]: 100%
- inhibition in vivo at 5 mg/kg [1]: 100%
- inhibition (PCA test), oral (5 mg/kg): 70%

SMILES: Cn1c2ccccc2c2oc(C(=O)O)cc(=O)c21 [H/CH3 A, 4,5-dihydro-5-methyl-4-oxopyrano[3,2-b]indole-2-carboxylic acid, reference compound]
- inhibition in vivo at 1 mg/kg [2]: 30%
- inhibition in vivo at 5 mg/kg [1]: 100%

SMILES: Cn1c2ccccc2c2oc(C(=O)Nc3nnn[nH]3)cc(=O)c21 [H/CH3 C, 4,5-Dihydro-5-methyl-4-oxo-N-1H-tetrazol-5-ylpyrano[3,2-b]indole-2-carboxamide]
- inhibition in vivo at 1 mg/kg [2]: 28%
- inhibition in vivo at 5 mg/kg [1]: 100%

SMILES: Cn1c2ccccc2c2oc(-c3nnn[nH]3)cc(=O)c21 [H/CH3 T, 5-Methyl-2(1H-tetrazol-5-yl)pyrano[3,2-b]indol-4(5H)-one]
- inhibition in vivo at 1 mg/kg [2]: 87%
- inhibition in vivo at 5 mg/kg [1]: 100%
- inhibition (PCA test), oral (2 mg/kg): 12%
- inhibition (PCA test), oral (5 mg/kg): 39%
